Laboratory results from ChEMBL document CHEMBL1146980, “Synthesis and antitumor activity of icogenin and its analogue” (Bioorg Med Chem Lett, 2006).

Legend:
Format in all cases: functional, cell-based
Bel-7402 = experiment: Cytotoxicity against human BEL-7402 cells by MTT assay
NCI-H460 = experiment: Cytotoxicity against human H460 cells by MTT assay
PC-3 = experiment: Cytotoxicity against human PC3M cells by MTT assay
BGC-823 = experiment: Cytotoxicity against human BGC823 cells by MTT assay
KETR3 = experiment: Cytotoxicity against human KETR3 cells by MTT assay
HCT-8 = experiment: Cytotoxicity against human HCT8 cells by MTT assay
A-431 = experiment: Cytotoxicity against human A431 cells by MTT assay
PANC-1 = experiment: Cytotoxicity against human PANC1 cells by MTT assay

| Structure (SMILES) | IC50 (Bel-7402) [µM] | IC50 (NCI-H460) [µM] | IC50 (PC-3) [µM] | IC50 (BGC-823) [µM] | IC50 (KETR3) [µM] | IC50 (HCT-8) [µM] | IC50 (A-431) [µM] | IC50 (PANC-1) [µM] |
| --- | --- | --- | --- | --- | --- | --- | --- | --- |
| CO[C@]1(CC[C@H](C)CO)O[C@H]2C[C@H]3[C@@H]4CC=C5C[C@@H](O[C@H]6O[C@H](CO)[C@@H](O)[C@H](O[C@@H]7O[C@H](CO)[C@@H](O)[C@H](O)[C@H]7O)[C@H]6O[C@@H]6O[C@@H](C)[C@H](O)[C@@H](O)[C@H]6O)CC[C@]5(C)[C@H]4CC[C@]3(C)[C@H]2[C@@H]1C | 0.95 | 8.16 | 2.76 | 2.52 | 3.78 | 1.42 | 0.67 | 0.38 |
| CO[C@]1(CC[C@H](C)CO)O[C@H]2C[C@H]3[C@@H]4CC=C5C[C@@H](O[C@@H]6O[C@H](CO)[C@@H](O)[C@H](O[C@@H]7O[C@H](CO)[C@@H](O)[C@H](O)[C@H]7O)[C@H]6O[C@@H]6O[C@@H](C)[C@H](O)[C@@H](O)[C@H]6O)CC[C@]5(C)[C@H]4CC[C@]3(C)[C@H]2[C@@H]1C [ICOGENIN] | 0.75 | > 10 | 4.35 | > 10 | 5.15 | 1.45 | 3.44 | 0.27 |
